Results reported in patent publication EP4603105A1, “PHARMACEUTICAL COMPOSITION CONTAINING CYCLIC COMPOUND HAVING SELECTIVE KRAS INHIBITORY EFFECT AGAINST HRAS AND NRAS” (CHUGAI SEIYAKU KABUSHIKI KAISHA, priority 2022, dated 2024).
*1 amine or outer side, *2 acyl side, *3 side chain or, on linkers, in order; H or OH if unused. Where a SMILES comes first, the peptide text is derived from it. Bridges are numbered along the chain shown (N, C = ends). [ ]: non-standard residue; d: D form. The star is where a group is joined. hPhe(3-Cl-4-CF3) = N[C@@H](CCc1ccc(C(F)(F)F)c(Cl)c1)C(=O)O; NEtPhe(4-CF3) = CCN[C@@H](Cc1ccc(C(F)(F)F)cc1)C(=O)O; NEtPhe(4-Me) = CCN[C@@H](Cc1ccc(C)cc1)C(=O)O; NMePhe(4-Me) = CN[C@@H](Cc1ccc(C)cc1)C(=O)O; X30 = CCN([C@H](C(=O)[*:2])C1CCCC1)[*:1]; NMeGly(cPent) = CN[C@H](C(=O)O)C1CCCC1; Hyp = O=C(O)[C@@H]1C[C@@H](O)CN1; NMeD = CN[C@@H](CC(=O)O)C(=O)O; NMeL = CN[C@@H](CC(C)C)C(=O)O; NMeV = CN[C@H](C(=O)O)C(C)C; Morpholide = C1CN(*)CCO1; NMeA = CN[C@@H](C)C(=O)O; Ac5c = NC1(C(=O)O)CCCC1; Aze = O=C(O)[C@@H]1CCN1; NBuGly = CCCCNCC(=O)O; NPrGly = CCCNCC(=O)O; NEtG = CCNCC(=O)O; Sar = CNCC(=O)O

Legend:
[1] = biological target: HRAS wild-type protein (Homo sapiens, UniProt P01112); test: Binding to HRAS by surface plasmon resonance (SPR), KD and KD ratio to KRAS; conditions: ratio of KD for HRAS wild-type protein to KD for KRAS
Method: (§1) Surface plasmon resonance was used to analyze the binding affinity of compounds for KRAS, NRAS, and HRAS. The apparatus used was Biacore 8K, 8K+, or T200 (GE Healthcare), and the running buffer used was HBS (10 mM HEPES-NaOH, 150 mM NaCl, pH 7.4) containing 1 mM DTT, 10 mM MgCl2, 0.01% Tween 20, 10 µM GDP, and 4% DMSO.
(§2) Biotinylated Avi-tag fusion KRAS, NRAS, and HRAS proteins were expressed in E. coli BL21 (DE3) strains, and after cells were homogenized, they were purified using Streptavidin Mutein Matrix and Superdex 75. After purification, GDP-loaded KRAS, NRAS, and HRAS proteins were immobilized on the surface of Sensor Chip CAP (Cytiva) coated with Biotin CAPture Reagent in an immobilization amount of about 100 to 300 RU. Binding of each compound was evaluated by the Single Cycle Kinetics method, and a running buffer or a compound solution was added to the RAS protein non-immobilized surface and the immobilized surface to obtain a binding response. The flow rate was set to 100 µL/min, and in the compound-adding cycle, compound solutions having different concentrations were intermittently added for 75 seconds each, starting from a low concentration. […] In the blank cycle, a running buffer was intermittently added and not the compound solution. The Biotin CAPture Reagent and RAS proteins were immobilized for each cycle, and at the end of each cycle, the sensor chip was regenerated by the regeneration solution appended to the Biotin CAPture Kit (Cytiva). Measurement was carried out at 30°C.
(§3) The resulting sensorgram was subjected to curve fitting based on a 1:1 binding model on Biacore Insight Evaluation Software or T200 Evaluation Software, and thereby the dissociation constant KD of each compound with respect to KRAS, NRAS, and HRAS was determined. […] Blank indicates a compound from which the KD value with respect to NRAS or HRAS was not obtained.

[2] = biological target: GDP-bound NRAS wild-type protein (Homo sapiens, UniProt P01111); test: Binding to NRAS by surface plasmon resonance (SPR), KD and KD ratio to KRAS; conditions: ratio of KD for GDP-bound NRAS wild-type protein to KD for KRAS
Method: as §1, §2, §3

[3] = tested on: human lung cancer strain NCI-H441; assay type: cell-based
Method: A test compound was dispensed into a U-bottom 384-well plate as 40 nL serially diluted dimethyl sulfoxide solutions using a liquid handler Echo (LABCYTE). […] This cell suspension was dispensed in an amount of 40 µL per well into a plate containing the test compound, and cultured at 37°C in a 5% carbon dioxide gas incubator. Four days later, 20 µL of CellTiter-Glo (registered trademark) (Promega) was added to each well and […] was measured. […]

GDP-bound NRAS wild-type protein, sequence (P01111 whole entry): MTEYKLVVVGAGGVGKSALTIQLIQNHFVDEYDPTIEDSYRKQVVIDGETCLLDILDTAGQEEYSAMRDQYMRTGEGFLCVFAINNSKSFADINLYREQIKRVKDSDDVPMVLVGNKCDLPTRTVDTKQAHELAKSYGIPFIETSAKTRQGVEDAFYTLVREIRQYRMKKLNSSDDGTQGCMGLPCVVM
HRAS wild-type protein, sequence (P01112 whole entry): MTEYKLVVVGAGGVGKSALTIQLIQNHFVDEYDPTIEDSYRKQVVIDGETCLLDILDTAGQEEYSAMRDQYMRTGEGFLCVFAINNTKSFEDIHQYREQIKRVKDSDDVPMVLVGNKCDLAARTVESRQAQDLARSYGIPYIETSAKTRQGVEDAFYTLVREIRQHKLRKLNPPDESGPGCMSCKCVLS

Row | Structure (SMILES) | HRAS /KRAS [1] | NRAS /KRAS [2] | IC50 [3] [nM]
1 | CC[C@H](C)[C@@H]1NC(=O)[C@H](CC(C)C)N(C)C(=O)C[C@@H](C(=O)N2CCOCC2)N(C)C(=O)[C@H](C2CCCC2)N(C)C(=O)C2(CCCC2)NC(=O)[C@@H]2C[C@@H](O)CN2C(=O)[C@H](CCc2ccc(C(F)(F)F)c(Cl)c2)NC(=O)CN(C)C(=O)[C@H](Cc2ccc(C)cc2)N(CC)C(=O)[C@@H]2CCN2C(=O)[C@H](C)N(C)C1=O [PP0013] ([NMeL]I[NMeA][Aze][NEtPhe(4-Me)][Sar][hPhe(3-Cl-4-CF3)][Hyp][Ac5c][NMeGly(cPent)][NMeD]-Morpholide; lactam N-11) | C (A compound having a KD ratio of 0.1 or more and less than 3 is denoted as C) | C (A compound having a KD ratio of 0.1 or more and less than 3 is denoted as C) | 9.8
2 | CCO[C@@H]1C[C@H]2C(=O)NC3(CCCC3)C(=O)N(C)[C@@H](C3CCCC3)C(=O)N(C)[C@H](C(=O)N3CCOCC3)CC(=O)N(C)[C@@H](CC(C)C)C(=O)N[C@@H]([C@@H](C)CC)C(=O)N(C)[C@@H](C)C(=O)N3CC[C@H]3C(=O)N(CC)[C@@H](Cc3ccc(C)cc3)C(=O)N(C)CC(=O)N[C@@H](CCc3ccc(C(F)(F)F)c(Cl)c3)C(=O)N2C1 [PP0014] ([NMeL]I[NMeA][Aze][NEtPhe(4-Me)][Sar][hPhe(3-Cl-4-CF3)][Hyp](Et)[Ac5c][NMeGly(cPent)][NMeD]-Morpholide; lactam N-11) | C (A compound having a KD ratio of 0.1 or more and less than 3 is denoted as C) | C (A compound having a KD ratio of 0.1 or more and less than 3 is denoted as C) | 2
3 | CC[C@H](C)[C@@H]1NC(=O)[C@H](CC(C)C)N(C)C(=O)C[C@@H](C(=O)N2CCOCC2)N(C)C(=O)[C@H](C(C)C)N(C)C(=O)C2(CCCC2)NC(=O)[C@@H]2CCCN2C(=O)[C@H](CCc2ccc(C(F)(F)F)c(Cl)c2)NC(=O)CN(C)C(=O)[C@H](Cc2ccc(C)cc2)N(CC)C(=O)[C@@H]2CCN2C(=O)[C@H](C)N(C)C1=O [PP0015] ([NMeL]I[NMeA][Aze][NEtPhe(4-Me)][Sar][hPhe(3-Cl-4-CF3)]P[Ac5c][NMeV][NMeD]-Morpholide; lactam N-11) | C (A compound having a KD ratio of 0.1 or more and less than 3 is denoted as C) | C (A compound having a KD ratio of 0.1 or more and less than 3 is denoted as C) | 24.5
4 | CC[C@H](C)[C@@H]1NC(=O)[C@H](CC(C)C)N(C)C(=O)C[C@@H](C(=O)N2CCOCC2)N(C)C(=O)[C@H](CC(C)C)N(C)C(=O)C2(CCCC2)NC(=O)[C@@H]2CCCN2C(=O)[C@H](CCc2ccc(C(F)(F)F)c(Cl)c2)NC(=O)CN(C)C(=O)[C@H](Cc2ccc(C)cc2)N(CC)C(=O)[C@@H]2CCN2C(=O)[C@H](C)N(C)C1=O [PP0016] ([NMeL]I[NMeA][Aze][NEtPhe(4-Me)][Sar][hPhe(3-Cl-4-CF3)]P[Ac5c][NMeL][NMeD]-Morpholide; lactam N-11) | C (A compound having a KD ratio of 0.1 or more and less than 3 is denoted as C) | C (A compound having a KD ratio of 0.1 or more and less than 3 is denoted as C) | 24.6
5 | CC[C@H](C)[C@@H]1NC(=O)[C@H](CC(C)C)N(C)C(=O)C[C@@H](C(=O)N2CCOCC2)N(C)C(=O)[C@H](C2CCCC2)N(C)C(=O)C2(CCCC2)NC(=O)[C@@H]2CCCN2C(=O)[C@H](CCc2ccc(C(F)(F)F)c(Cl)c2)NC(=O)CN(C)C(=O)[C@H](Cc2ccc(C)cc2)N(C)C(=O)CN(C)C(=O)CN(C)C1=O [PP0018] ([NMeL]I[Sar][Sar][NMePhe(4-Me)][Sar][hPhe(3-Cl-4-CF3)]P[Ac5c][NMeGly(cPent)][NMeD]-Morpholide; lactam N-11) | C (A compound having a KD ratio of 0.1 or more and less than 3 is denoted as C) | C (A compound having a KD ratio of 0.1 or more and less than 3 is denoted as C) | 7
6 | CC[C@H](C)[C@@H]1NC(=O)[C@H](CC(C)C)N(C)C(=O)C[C@@H](C(=O)N2CCOCC2)N(C)C(=O)[C@H](C2CCCC2)N(C)C(=O)C2(CCCC2)NC(=O)[C@@H]2CCCN2C(=O)[C@H](CCc2ccc(C(F)(F)F)c(Cl)c2)NC(=O)CN(C)C(=O)[C@H](Cc2ccc(C)cc2)N(C)C(=O)CN(CC)C(=O)CN(C)C1=O [PP0019] ([NMeL]I[Sar][NEtG][NMePhe(4-Me)][Sar][hPhe(3-Cl-4-CF3)]P[Ac5c][NMeGly(cPent)][NMeD]-Morpholide; lactam N-11) | C (A compound having a KD ratio of 0.1 or more and less than 3 is denoted as C) | C (A compound having a KD ratio of 0.1 or more and less than 3 is denoted as C) | 6.7
7 | CCCN1CC(=O)N(C)[C@@H](Cc2ccc(C)cc2)C(=O)N(C)CC(=O)N[C@@H](CCc2ccc(C(F)(F)F)c(Cl)c2)C(=O)N2CCC[C@H]2C(=O)NC2(CCCC2)C(=O)N(C)[C@@H](C2CCCC2)C(=O)N(C)[C@H](C(=O)N2CCOCC2)CC(=O)N(C)[C@@H](CC(C)C)C(=O)N[C@@H]([C@@H](C)CC)C(=O)N(C)CC1=O [PP0020] ([NMeL]I[Sar][NPrGly][NMePhe(4-Me)][Sar][hPhe(3-Cl-4-CF3)]P[Ac5c][NMeGly(cPent)][NMeD]-Morpholide; lactam N-11) | C (A compound having a KD ratio of 0.1 or more and less than 3 is denoted as C) | C (A compound having a KD ratio of 0.1 or more and less than 3 is denoted as C) | 9.9
8 | CCCCN1CC(=O)N(C)[C@@H](Cc2ccc(C)cc2)C(=O)N(C)CC(=O)N[C@@H](CCc2ccc(C(F)(F)F)c(Cl)c2)C(=O)N2CCC[C@H]2C(=O)NC2(CCCC2)C(=O)N(C)[C@@H](C2CCCC2)C(=O)N(C)[C@H](C(=O)N2CCOCC2)CC(=O)N(C)[C@@H](CC(C)C)C(=O)N[C@@H]([C@@H](C)CC)C(=O)N(C)CC1=O [PP0021] ([NMeL]I[Sar][NBuGly][NMePhe(4-Me)][Sar][hPhe(3-Cl-4-CF3)]P[Ac5c][NMeGly(cPent)][NMeD]-Morpholide; lactam N-11) | C (A compound having a KD ratio of 0.1 or more and less than 3 is denoted as C) | C (A compound having a KD ratio of 0.1 or more and less than 3 is denoted as C) | 9.8
9 | CC[C@H](C)[C@@H]1NC(=O)[C@H](CC(C)C)N(C)C(=O)C[C@@H](C(=O)N2CCOCC2)N(C)C(=O)[C@H](C2CCCC2)N(C)C(=O)C2(CCCC2)NC(=O)[C@@H]2CCCN2C(=O)[C@H](CCc2ccc(C(F)(F)F)c(Cl)c2)NC(=O)CN(C)C(=O)[C@H](Cc2ccc(C)cc2)N(CC)C(=O)CN(C)C(=O)CN(C)C1=O [PP0022] ([NMeL]I[Sar][Sar][NEtPhe(4-Me)][Sar][hPhe(3-Cl-4-CF3)]P[Ac5c][NMeGly(cPent)][NMeD]-Morpholide; lactam N-11) | C (A compound having a KD ratio of 0.1 or more and less than 3 is denoted as C) | B (a compound having 3 or more and less than 10 is denoted as B) | 14.4
10 | CC[C@H](C)[C@@H]1NC(=O)[C@H](CC(C)C)N(C)C(=O)C[C@@H](C(=O)N2CCOCC2)N(C)C(=O)[C@H](C2CCCC2)N(C)C(=O)C2(CCCC2)NC(=O)[C@@H]2CCCN2C(=O)[C@H](CCc2ccc(C(F)(F)F)c(Cl)c2)NC(=O)CN(C)C(=O)[C@H](Cc2ccc(C(F)(F)F)cc2)N(CC)C(=O)CN(C)C(=O)CN(C)C1=O [PP0023] ([NMeL]I[Sar][Sar][NEtPhe(4-CF3)][Sar][hPhe(3-Cl-4-CF3)]P[Ac5c][NMeGly(cPent)][NMeD]-Morpholide; lactam N-11) | C (A compound having a KD ratio of 0.1 or more and less than 3 is denoted as C) | B (a compound having 3 or more and less than 10 is denoted as B) | 4.5
11 | CC[C@H](C)[C@@H]1NC(=O)[C@H](CC(C)C)N(C)C(=O)C[C@@H](C(=O)N2CCOCC2)N(C)C(=O)[C@H](C2CCCC2)N(C)C(=O)C2(CCCC2)NC(=O)[C@@H]2CCCN2C(=O)[C@H](CCc2ccc(C(F)(F)F)c(Cl)c2)NC(=O)CN(C)C(=O)[C@H](C2CCCC2)N(CC)C(=O)CN(C)C(=O)CN(C)C1=O [PP0024] ([NMeL]I[Sar][Sar][X30][Sar][hPhe(3-Cl-4-CF3)]P[Ac5c][NMeGly(cPent)][NMeD]-Morpholide; lactam N-11) | C (A compound having a KD ratio of 0.1 or more and less than 3 is denoted as C) | B (a compound having 3 or more and less than 10 is denoted as B) | 102
